Experimental data published in patent US20020091131A1, “Epoxysuccinamide derivatives” (priority 1997, published 2002).

Tests used:
[1] = biological target: T1, Cathepsin L (Rattus norvegicus, UniProt P07154); assay: Cathepsin L inhibitory action (rat liver lysosome fraction, Z-Phe-Arg-MCA, in presence of CA-074); assay type: biochemical; details: pH 5.5, 30° C., with 10^-7 M CA-074, read-out: Cathepsin Inhibition (IC50) Cathepsin L
T1 construct: Thus, a lysosome fraction was obtained; from tissue; host or cells: liver of male Wistar rat, crude lysosome fraction
T1 sequence (P07154 114-334): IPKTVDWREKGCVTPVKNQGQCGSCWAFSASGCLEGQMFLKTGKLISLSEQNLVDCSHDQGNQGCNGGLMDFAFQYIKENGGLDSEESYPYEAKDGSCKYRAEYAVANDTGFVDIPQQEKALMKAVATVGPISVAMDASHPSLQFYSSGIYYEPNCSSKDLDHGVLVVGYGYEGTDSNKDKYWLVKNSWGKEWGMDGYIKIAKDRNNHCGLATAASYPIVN
Description: (§1) Male rat of Wistar strain was killed by exsanguination and a ice-chilled physiological saline was introduced into portal vein for circulation Then, its liver was taken out. Thereafter, the following procedures were performed at 4°C.
(§2) The liver was minced by scissors. Five grams of minced liver were homogenized in a Potter type Teflon Homogenizer after addition of 9 volumes of 0.25 M sucrose. The homogenate was centrifuged at 800 G for 10 minutes. The resulting supernatant was further centrifuged at 12,000 G for 20 minutes. The precipitate was homogenized in 25 mL of 0.25 M sucrose, and then centrifuged at 12,000 G for 20 minutes. The resulting precipitate was further homogenized in 10 mL of 0.25 M sucrose. Thus, a lysosome fraction was obtained,
(§3) The lysosome fraction was diluted with 0.25M sucrose containing 0.336 of Triton X-100 for the use in the measurement of cathepsin L activity.
To 0.25 mL of a solution (pH: 5.5) containing 340 mM sodium acetate, 60 mM acetic acid, 4 mM EDTA and 8 mM dithiothreitol were added 0.1mL of the lysosome fraction, 5 μL of the test compound solution, and 0.545 mL of distilled water. The mixture was pre-incubated at 30° C. for 15 minutes. Thereafter, 0.1 mL of 50 μM by carbobenzoxy-L-phenylalanyl-L-arginine-4-methylcoumaryl-7-amide (Z-Phe-Arg-MCA) solution was added, and the reaction was started. The reaction was performed at 30° C. for 20 minutes, and then terminated by addition of 1mL of an aqueous solution (pH. 4.3) containing 100 mM sodium mono-chloroacetate, […] and 70 mM acetic acid The finally obtained solution was subjected to measurement of fluorescence strength (excitation wave-length: 380 nm, emission wavelength: 460 nm.
The Z-Phe-Arg-MCA is also decomposed by cathepsin B which is contained in the lysosome fraction.

[2] = test system: rats grown with low calcium feed (bone resorption); assay: Bone resorption inhibitory activity by decrease of plasma calcium concentration in rats grown with low calcium feed; assay type: in vivo, rat; details: Wistar rats on low calcium feed, 6 hours after administration, vs non-administration group
Description: (1) If rats are grown with low calcium feed, its bone weight decreases. This is because calcium is left from bone by dissolution in blood (i.e., bone resorption) so as to maintain the calcium concentration in blood at a normal level. Therefore, compounds inhibiting bone resorption in the model adopted in this experiment inhibit dissolution of calcium in blood from bone to reduce the plasma calcium concentration. Thus, compounds of the invention were evaluated in their bone resorption inhibitory activity by measuring decrease of plasma calcium concentration in the following experiment (according to J. M. Delaisse et al., Biochem. Biophys. Res. Commun., 125, 441 (1984)
Rats of Wistar strain (age: 5 to 6 weeks) were grown with a low calcium content feed (Ca: 0.02S, available from Oriental Yeast Industries, Co., Ltd.) for one week to give bone resorption-enhanced condition A test compound was dissolved in aqueous 1 nethylcellulose solution (when the test compound was-hydrophobic, Tween 20, nonionic-surfactant, was added), and administered orally to the rat in a dosage of 0.2 mL/100 g (weight of rat) At 6 hours after the administration, blood was taken from tail vein of the rat Then, the plasma calcium concentration was measured by OCPC method,
The plasma calcium concentration decreasing activity (Ca decrease rate) of the test compound was calculated by the following equation:
Ca decrease rate (%)=100×(plasma calcium concentration at 6 hours after administration of test compound)−(plasma calcium concentration at the same time in non-administration group)/(plasma calcium concentration at the same time in non-administration group)

[3] = biological target: T2, Cathepsin B (Rattus norvegicus, UniProt P00787); assay: Cathepsin B inhibitory action (lysosome fraction, Z-Arg-Arg-MCA); assay type: biochemical; details: pH 6.0, 30° C., read-out: Cathepsin Inhibition (IC50) Cathepsin B
T2 construct: from tissue; host or cells: liver of male Wistar rat, crude lysosome fraction
T2 sequence (P00787 80-333): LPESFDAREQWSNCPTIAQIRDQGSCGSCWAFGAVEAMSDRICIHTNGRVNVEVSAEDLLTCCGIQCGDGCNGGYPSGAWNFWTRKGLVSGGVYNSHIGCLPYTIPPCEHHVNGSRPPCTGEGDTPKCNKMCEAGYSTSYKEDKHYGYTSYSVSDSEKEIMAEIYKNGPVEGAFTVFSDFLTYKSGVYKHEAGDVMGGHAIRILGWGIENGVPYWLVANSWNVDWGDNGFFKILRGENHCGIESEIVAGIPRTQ
Description: as §1, §2, §3
To 0.25 mL of a solution (pH: 6.0) containing 352 mM KH2PO4, 48 mM Na2HPO4, 5.32 mM EDTA·2Na and 10 mM L-cysteine were added 0.1 mL of the lysosome fraction, 5 μL of the test compound solution, and 0.545 mL of distilled water. The mixture was pre-incubated at 30° C. for 15 minutes. Thereafter, the reaction was started by the addition of 0.1 mL of a solution of 50 μM carbobenzoxy-L-arginine-L-arginine-4-methylcoumaryl-7-amide (Z-Arg-Arg-MCA, substrate). The reaction was performed at 30° C. for 20 minutes, and then terminated by addition of 1 mL of an aqueous solution (pH: 4.3) containing 100 mM sodium mono-chloroacetate, 30 mM sodium acetate and 70 mM acetic acid. The finally obtained solution was subjected to measurement of fluorescence strength (excitation wavelength: 380 nm, emission wavelength: 460 nm).

[4] = test system: Rat adjuvant arthritis; assay: Action on rat adjuvant arthritis (hind paw volume); assay type: in vivo; details: Wistar rats, 300 mg/kg orally once a day for 21 days, untreated hind paw, significant vs control, risk <1%
Description: Rat adjuvant arthritis which is considered as a model of rheumatoid arthritis of human being was employed for evaluation of the compound of the invention.
Male rats of Wistar strain (age: 5 weeks) were sensitized by subcutaneous injection of Mycobacterium Butyricum which was suspended in liquid paraffin into the right hind paw. From the next day, a test compound (the compound of the aforementioned Example 5) was orally administered at a dosage of 300 mg/kg once a day for 21 days (administration group: 8 rats). After the last administration was complete, a volume of the untreated hind paw was measured by means of Volume Differential Meter and compared with that of Control group (8 rats, non-administration group) In addition, a non-adjuvant treatment group (normal group: 8 rats) was subjected to the same measurement. Inhibition of expansion of the hind paw by the test compound (Inhibition rate) was calculated by the following equation:
Inhibition rate (%)=100×(administration group−control group)/(normal group−control group)

[5] = test system: ovariectomized rats; assay: Action on ovariectomized rats (postmenopausal osteoporosis model), bone density by p-QCT; assay type: in vivo, rat; details: ovariectomized SD female rats, 300 mg/kg once a day for 4 weeks; average ± SD; control 543.7 ± 31.4, false operation 658.8 ± 46.3; P < 0.01 vs control
Description: The ovariectomized rats were employed as models of postmenopausal osteoporosis, for evaluating the compound of the invention. (2) Experimental Procedures
The ovaries on both sides were removed surgically in SD female rats (age; 13 weeks). From the next day, a test compound (compound of Example 5) was administered at 300 mg/kg to the rats once a day for 4 weeks (administration group: 8 rats). After the last administration was complete, the fourth vertebrae lumbale was taken out, and the total bone density was measured by means of p-QCT (Peripheral Bone Density-Measuring Apparatus) and compared with the bone density of the control group (7 rats). In addition, rats treated by false-operation were also subjected to the same measurement, […]

[6] = Rattus norvegicus, po, 15 mg/kg p.o., read-out: Measured Plasma Ca Concentration (Ca decrease rate)

Row | Structure (SMILES) | IC50 [1] [nM] | IC50 [3] [nM] | change in vivo at 15 mg/kg [2, 6] [%] | further results
1 | CCOC(=O)[C@H]1O[C@@H]1C(=O)N[C@H](COCC(C)C)CC(C)C [Example 18a, Ethyl (2S,3S)-3-[[1-(S)-isobutoxyrethyl-3-methylbutyl]-carbamoyl]oxirane-2-carboxylate] |  |  |  | Measured Plasma Ca Concentration (Ca decrease rate) ([2]; 15 mg/kg p.o.): −24.5%
2 | CCOC(=O)[C@H]1O[C@@H]1C(=O)N[C@H](COCc1ccccc1)CC(C)C [Example 17, Ethyl (2S,3S)-3-[[1-(S)-benzyloxymethyl-3-methylbutyl]-carbamoyl]oxirane-2-carboxylate] |  |  | -15.4 | 
3 | CCOC(=O)[C@H]1O[C@@H]1C(=O)N[C@@H](CC(C)C)C(=O)c1ccccc1 [Example 7, Ethyl (2S,3S)-3-[[1-(S)-benzoyl-3-methylbutyl]carbamoyl]-oxirane-2-carboxylate] |  |  | -13.6 | 
4 | CCOC(=O)[C@H]1O[C@@H]1C(=O)N[C@@H](CC(C)C)[C@H](O)c1ccccc1 [Example 1a, Ethyl (2S,3S)-3-[[1-(S)-[α-(R)-hydroxybenzyl]-3-methyl-butyl]carbamoyl]oxirane-2-carboxylate] |  |  | -12.5 | 
5 | CCOC(=O)[C@H]1O[C@@H]1C(=O)N[C@H](C(=O)c1ccccc1)C(C)C [Example 8, Ethyl (2S,3S)-3-[[1-(S)-benzoyl-2-methylpropyl]-carbamoyl]oxirane-2-carboxylate] |  |  | -15.8 | 
6 | CO[C@H](c1ccccc1)[C@H](CC(C)C)NC(=O)[C@H]1O[C@@H]1C(=O)OC(C)C [Example 14, Isopropyl (2S,3S)-3-[[1-(S)-[α-(R)-methoxybenzyl]-3-methylbutyl]carbamoyl]oxirane-2-carboxylate] |  |  |  | change in vivo at 5 mg/kg ([2]; Rattus norvegicus, po, 5 mg/kg p.o., read-out: Measured Plasma Ca Concentration (Ca decrease rate)): -9.9%
7 | CCOC(=O)[C@H]1O[C@@H]1C(=O)N[C@@H](CC(C)C)[C@H](OC)c1ccccc1 [Example 5, Ethyl (2S,3S)-3-[[1-(S)-[α-(R)-methoxybenzyl]-3-methyl-butyl]carbamoyl]oxirane-2-carboxylate] |  |  | -20.4 | Inhibition of expansion of the hind paw (Inhibition rate) [4]: 42%; melting point: 108 to 109 °C; Total bone density of the fourth vertebrae lumbale [5]: 617.8 ± 37.9 mg/mL
8 | CCOC(=O)[C@H]1O[C@@H]1C(=O)N[C@@H](CC(C)C)[C@H](OC(C)=O)c1ccccc1 [Example 13, Ethyl (2S,3S)-3-[[1(S)-[α-(R)-acetoxybenzyl]-3-methyl-butyl]carbamoyl]oxirane-2-carboxylate] |  |  | -14.7 | 

The next lines start with results.

Row | IC50 [1] [nM] | IC50 [3] [nM] | Structure (SMILES) | change in vivo at 15 mg/kg [2, 6] [%] | further results
9 | 11 |  | O=C(O)[C@H]1O[C@@H]1C(=O)N[C@H](COCc1ccccc1)Cc1ccccc1 [Example 23] |  | 
10 | 57 | 210 | CCC(C)[C@H](NC(=O)[C@H]1O[C@@H]1C(=O)O)[C@H](O)c1ccccc1 (stereo partly drawn) [Example 9, (2S,3S)-3-[[1-(S)-[α-(R)-hydroxybenzyl]-2-methylbutyl]carbamoyl]oxirane-2-carboxylic acid] |  | 
11 | 18 | 85 | CO[C@H](c1ccccc1)[C@H](CC(C)C)NC(=O)[C@H]1O[C@@H]1C(=O)O [Example 11, (2S,3S)-3-[[1-(S)-[α-(R)-methoxybenzyl]-3-methylbutyl]-carbamoyl]oxirane-2-carboxylic Acid] | -17.3 | 
12 | 94 | 100 | CC(C)C[C@@H](CO)NC(=O)[C@H]1O[C@@H]1C(=O)O [Example 12, (2S,3S)-3-[[1-(S)-hydroxymethyl-3-methylbutyl]carbamoyl]-oxirane-2-carboxylic Acid] |  | 
13 | 6.9 | 28 | CC(C)C[C@@H](COCc1ccccc1)NC(=O)[C@H]1O[C@@H]1C(=O)O [Example 24, Sodium (2S,3S)-3-[[1-(S)-benzyloxymethyl-3-methylbutyl]-carbamoyl]oxirane-2-carboxylate] |  | 
14 | 11 | 120 | CC(C)C[C@H](NC(=O)[C@H]1O[C@@H]1C(=O)O)[C@H](O)c1ccccc1 [Example 2, (2S,3S)-3-[[1-(S)-[α-(R)-hydroxybenzyl]-3-methylbutyl]-carbamoyl]oxirane-2-carboxylic acid] |  | 
15 | 3.3 | 41 | CC(C)C[C@H](NC(=O)[C@H]1O[C@@H]1C(=O)O)[C@H](OCc1ccccc1)c1ccccc1 [Example 22, (2S,3S)-3-[[1-(S)-[α-(R)-(benzyloxy)benzyl]-3-methyl-butyl]carbamoyl]oxirane-2-carboxylic Acid] |  | 
